Measured values from PubChem BioAssay (NCI).
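Results reflect a 48-hour exposure of cells in 96-well plates to compound at five concentrations. At the TGI there is no net growth.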

What was measured:
Experiment in all cases: DTP human tumour cell line panel, 48 h
HCT-15 colon = tested on: HCT-15 colon
A498 renal = tested on: A498 renal
SNB-19 CNS = tested on: SNB-19 CNS
EKVX NSCLC = tested on: EKVX NSCLC
HOP-62 NSCLC = tested on: HOP-62 NSCLC
COLO 205 colon = tested on: COLO 205 colon
LOX IMVI melanoma = tested on: LOX IMVI melanoma
M14 melanoma = tested on: M14 melanoma
SN12C renal = tested on: SN12C renal
PC-3 prostate = tested on: PC-3 prostate

Row | Compound | TGI (HCT-15 colon) | TGI (A498 renal) | TGI (SNB-19 CNS) | TGI (EKVX NSCLC) | TGI (HOP-62 NSCLC) | TGI (COLO 205 colon) | TGI (LOX IMVI melanoma) | TGI (M14 melanoma) | TGI (SN12C renal) | TGI (PC-3 prostate)
1 | CCSC(SCC)=C1C(=O)N(c2ccccc2)N=C1C | 24.7 µM | 28.8 µM | 62.8 µM | 28.5 µM | 53.7 µM | 7.08 µM | 26.4 µM | 29.7 µM | 30 µM | –
2 | CSc1ccc(C(=O)C(=O)c2ccc(SC)s2)s1 | > 10 µM | – | > 10 µM | > 10 µM | > 10 µM | > 10 µM | > 10 µM | > 10 µM | > 10 µM | > 10 µM
3 | CCCCCCCCCCCCCc1nn[nH]n1 | 34.6 µM | 32.2 µM | 33 µM | 52 µM | 32.8 µM | 36.6 µM | 35.4 µM | 31.5 µM | 35.9 µM | –
4 | COc1ccccc1NC(=O)C(CC(C(=O)Nc1ccccc1OC)/C(C)=N/Nc1ccc([N+](=O)[O-])cc1[N+](=O)[O-])/C(C)=N/Nc1ccc([N+](=O)[O-])cc1[N+](=O)[O-] (configuration not stated) | > 100 µM | > 100 µM | > 100 µM | > 100 µM | > 100 µM | > 100 µM | > 100 µM | > 100 µM | > 100 µM | –
5 | CCOc1ccc(C(CN2CCOCC2)C(C)=O)cc1OC (configuration not stated) | 22.5 µM | 59 µM | 32 µM | 50.3 µM | 40.4 µM | 19.6 µM | 31.1 µM | 33.7 µM | 31.2 µM | –
6 | COC(=O)CC(C(C(C)=O)C(=O)OCc1ccccc1)N1C(=O)OCC1c1ccccc1 (configuration not stated) | > 100 µM | > 100 µM | > 100 µM | > 100 µM | > 100 µM | > 100 µM | > 100 µM | > 100 µM | > 100 µM | –
7 | CCOC(=O)C(NC(=O)c1[nH]cnc1/N=N/N(C)C)C(C)C (configuration not stated) | > 100 µM | > 100 µM | > 100 µM | > 100 µM | > 100 µM | > 100 µM | > 100 µM | > 100 µM | > 100 µM | –
8 | COc1ccc(CCN=C2CCC(C(=O)NCCc3ccc(OC)c(OC)c3)N2)cc1OC (configuration not stated) | > 100 µM | > 100 µM | > 100 µM | > 100 µM | > 100 µM | > 100 µM | > 100 µM | > 100 µM | > 100 µM | –
9 | CCN(CC)CCN(C(=O)C(C)(C)C)c1ccccc1N | > 100 µM | – | > 100 µM | > 100 µM | > 100 µM | – | – | > 100 µM | > 100 µM | > 100 µM
10 | CNC(=O)CN(CC(N)=O)C(N)=O | > 100 µM | > 100 µM | > 100 µM | > 100 µM | > 100 µM | > 100 µM | > 100 µM | > 100 µM | – | –
